# Experiments:
# COX-1 = biological target: T1, COX-1 (Homo sapiens, UniProt P23219); experiment: Human whole blood assay, COX-1 (clotting-induced TxB2 production); type: cell-based; conditions: 1 hour at 37° C
# T1 construct: platelets in whole blood contain a large amount of the COX-1 enzyme; endogenous in cells; host or cells: platelets in fresh human whole blood
# Experimental: (§1) As well, platelets in whole blood contain a large amount of the COX-1 enzyme. Immediately following blood clotting, platelets are activated through a thrombin-mediated mechanism. This reaction results in the production of thromboxane B2 (TxB2) via activation of COX-1.
# Aliquots of 500 μL were immediately transferred to siliconized microcentrifuge tubes preloaded with 2 μL of either DMSO or a test compound at final concentrations varying from 10 nM to 30 μM.
# (§2) In the assay, inhibition is determined by measuring the amount of prostaglandin E2 (PGE2) synthesized in the presence of arachidonic acid, COX-1 or COX-2 and a putative inhibitor.
# COX-2 = biological target: T2, COX-2 (Homo sapiens, UniProt P35354); experiment: Human whole blood assay, COX-2 (LPS-induced PGE2 production); type: cell-based; conditions: 24 hours at 37° C
# T2 construct: incubation of human whole blood with LPS which induces COX-2; endogenous in cells; host or cells: LPS-stimulated fresh human whole blood (blood cells not specified)
# T2 sequence (P35354 18-604): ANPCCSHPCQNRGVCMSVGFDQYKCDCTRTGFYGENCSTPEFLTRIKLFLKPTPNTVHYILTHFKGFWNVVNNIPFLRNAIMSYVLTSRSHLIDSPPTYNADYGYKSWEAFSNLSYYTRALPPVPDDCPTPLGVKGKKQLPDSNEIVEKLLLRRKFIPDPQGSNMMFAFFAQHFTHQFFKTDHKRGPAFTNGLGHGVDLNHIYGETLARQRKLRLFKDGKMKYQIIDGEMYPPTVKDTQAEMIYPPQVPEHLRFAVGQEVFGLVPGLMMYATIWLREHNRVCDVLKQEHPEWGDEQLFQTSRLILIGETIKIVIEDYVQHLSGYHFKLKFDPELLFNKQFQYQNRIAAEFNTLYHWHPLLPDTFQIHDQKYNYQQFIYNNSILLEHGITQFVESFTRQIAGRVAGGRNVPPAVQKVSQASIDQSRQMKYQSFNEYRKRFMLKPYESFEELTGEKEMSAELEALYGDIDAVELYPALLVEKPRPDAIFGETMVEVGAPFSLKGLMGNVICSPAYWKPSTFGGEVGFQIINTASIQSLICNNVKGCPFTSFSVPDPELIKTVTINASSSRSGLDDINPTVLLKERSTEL
# Description: as §1
# Fresh blood was collected in heparinized tubes by venipuncture from both male and female volunteers. The subjects had no apparent inflammatory conditions and had not taken any NSAIDs for at least 7 days prior to blood collection. Plasma was immediately obtained from a 2 mL blood aliquot to use as blank (basal levels of PGE2).
# as §2
# rat paw edema = experiment: Rat paw edema assay (carrageenan); type: in vivo, Male Sprague-Dawley rats; conditions: po, 1 hr before subplantar carrageenan, paw volume at 3 hr, read-out: ED50 (edema inhibition in rat paw)
# Experimental: Male Sprague-Dawley rats (150-200 g) were fasted overnight and were given, po, either vehicle (1% methocel or 5% Tween 80), or a test compound. One hr later, a line was drawn using a permanent marker at the level above the ankle in one hind paw to define the area of the paw to be monitored. The paw volume (V0) was measured using a plethysmometer (Ugo-Basile, Italy) based on the principle of water displacement. The animals were then injected subplantarly with 50 μl of 1% carrageenan solution in saline (FMC Corp, Maine) into the paw using an insulin syringe with a 25-gauge needle (i.e., 500 μg carrageenan per paw). Three hr later, the paw volume (V3) was measured and the increases in paw volume (V3 -V0) were calculated. The animals were sacrificed by CO2 asphyxiation and the absence or presence of stomach lesions scored. Data were compared with the vehicle-control values and percent inhibition calculated. ED50 values were used for comparison. All treatment groups were coded to eliminate observer bias.
# T1 sequence (P23219 24-599): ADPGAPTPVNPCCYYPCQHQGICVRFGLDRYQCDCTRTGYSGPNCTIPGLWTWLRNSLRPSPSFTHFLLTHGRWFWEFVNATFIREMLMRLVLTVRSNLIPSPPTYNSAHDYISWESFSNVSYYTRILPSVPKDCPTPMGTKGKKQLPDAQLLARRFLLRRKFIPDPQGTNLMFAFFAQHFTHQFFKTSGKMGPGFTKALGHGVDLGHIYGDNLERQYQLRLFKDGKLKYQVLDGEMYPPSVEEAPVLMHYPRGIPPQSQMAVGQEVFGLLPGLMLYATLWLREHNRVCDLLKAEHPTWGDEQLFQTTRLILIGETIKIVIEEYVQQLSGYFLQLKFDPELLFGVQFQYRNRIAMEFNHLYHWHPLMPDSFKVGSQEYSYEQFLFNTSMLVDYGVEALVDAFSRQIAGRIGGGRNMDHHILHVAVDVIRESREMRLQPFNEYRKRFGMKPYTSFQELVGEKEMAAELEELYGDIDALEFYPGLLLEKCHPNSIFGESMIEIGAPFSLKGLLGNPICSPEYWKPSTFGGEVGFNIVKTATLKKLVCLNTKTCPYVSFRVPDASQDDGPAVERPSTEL
IC50 (COX-1) [µM],IC50 (COX-2) [nM],Compound,ED50 (rat paw edema) [mg/kg]
20,2800,CS(=O)(=O)c1ccc(-c2snnc2-c2ccc(F)cc2)cc1 [Example 2],0.5
63,1300,CS(=O)(=O)c1ccc(-c2snnc2-c2cccc(F)c2)cc1 [Example 3],–
–,–,"COc1ccc2c(c1)c(CC(=O)O)c(C)n2C(=O)c1ccc(Cl)cc1 [Indomethacin, indomethacin, reference compound]",2
